For the assay, the target named is Cyclin-dependent kinase 6 (CDK6) (Homo sapiens, UniProt Q00534). The assay can be described thus: biochemical.
Sequence of Cyclin-dependent kinase 6 (CDK6) (Q00534 whole entry): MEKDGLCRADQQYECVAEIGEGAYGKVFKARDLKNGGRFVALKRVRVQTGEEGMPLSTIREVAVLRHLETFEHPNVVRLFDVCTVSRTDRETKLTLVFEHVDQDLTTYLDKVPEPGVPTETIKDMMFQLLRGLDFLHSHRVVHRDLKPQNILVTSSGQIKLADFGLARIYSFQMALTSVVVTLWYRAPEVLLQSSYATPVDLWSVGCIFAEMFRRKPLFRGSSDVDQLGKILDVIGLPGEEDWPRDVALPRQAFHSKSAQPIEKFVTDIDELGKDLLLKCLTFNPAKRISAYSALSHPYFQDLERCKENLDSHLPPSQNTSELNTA

With `Cc1cc(F)c(C(=O)Nc2cccc(-c3nncn3C(C)C)n2)cc1-n1cnc(C2CC2)c1` [selonsertib], the Kd – broadly, the equilibrium constant for the complex coming apart – was 5.56 µM.
